Legend:
human NF-κB = assay: NF-κB antagonist reporter assay (NF-κB GRE-luciferase, HEK293 cells); type: cell-based;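 note: reporter cells carry native NF-κB receptor with firefly luciferase under upstream response elements, with a vehicle control included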
human PPARδ = biological target: T1, human PPARδ (Homo sapiens, UniProt Q03181); assay: PPARδ agonist reporter assay (Gal4 hybrid receptor, luciferase, CHO cells); type: cell-based
T1 construct: expressed in transfected cells; host or cells: CHO
T1 sequence (Q03181 211-439 limits assumed): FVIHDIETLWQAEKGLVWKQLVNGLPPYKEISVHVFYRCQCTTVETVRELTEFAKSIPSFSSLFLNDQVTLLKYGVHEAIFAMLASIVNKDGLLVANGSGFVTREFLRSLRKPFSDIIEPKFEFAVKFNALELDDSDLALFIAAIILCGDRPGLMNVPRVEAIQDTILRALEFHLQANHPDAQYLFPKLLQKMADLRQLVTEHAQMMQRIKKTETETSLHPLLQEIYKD

NF-κB reporter cells = assay: Live cell multiplex assay in the NF-κB antagonist assay; type: cell-based, human
Experimental: A vehicle control was prepared.

Nrf2 = biological target: T2, Nrf2 (Homo sapiens, UniProt Q16236); assay: Nrf2 signaling fluorescent reporter assay in human retinal epithelial cell line; type: cell-based; set-up: host or cells: human retinal epithelial cell line
T2 sequence (Q16236 1-605): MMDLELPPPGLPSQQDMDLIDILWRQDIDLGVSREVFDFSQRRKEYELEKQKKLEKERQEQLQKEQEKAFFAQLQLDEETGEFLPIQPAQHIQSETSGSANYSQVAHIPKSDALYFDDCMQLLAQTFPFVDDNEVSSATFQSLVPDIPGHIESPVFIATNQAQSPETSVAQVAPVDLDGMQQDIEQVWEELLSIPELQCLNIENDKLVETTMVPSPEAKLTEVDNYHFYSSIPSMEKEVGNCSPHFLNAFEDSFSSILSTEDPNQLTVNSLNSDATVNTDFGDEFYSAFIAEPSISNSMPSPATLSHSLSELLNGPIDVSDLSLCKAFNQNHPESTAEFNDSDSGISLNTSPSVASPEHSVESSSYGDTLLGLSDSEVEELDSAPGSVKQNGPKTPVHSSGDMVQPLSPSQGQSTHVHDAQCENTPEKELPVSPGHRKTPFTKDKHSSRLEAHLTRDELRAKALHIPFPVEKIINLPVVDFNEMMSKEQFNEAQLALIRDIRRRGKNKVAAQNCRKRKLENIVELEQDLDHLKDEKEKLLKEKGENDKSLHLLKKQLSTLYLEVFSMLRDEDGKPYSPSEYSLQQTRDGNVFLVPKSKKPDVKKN

C. elegans strain CB5586 = assay: C. elegans phenotypic lifespan screening (Kaplan-Meier, Log-Rank, Fisher's Exact Test); type: in vivo; conditions: for restricted mean lifespan, # of Days: DMSO control 13.23
Experimental: Dilutions of the test formulations were applied to individual populations of C. elegans and the lifespan of each population was monitored. Any changes in the lifespan of an individual population compared to a control population were recorded and correlated to the respective test formulation (N356 or N357) and the respective dilution (0.1 mg/ml, 1 mg/ml, and 10 mg/ml).
The […] and N357 formulations were each prepared as individual 100 mg/ml stock solutions in dimethyl sulfoxide (DMSO). Serial dilutions of each stock solution were then prepared at 0.1 mg/ml, 1 mg/ml, and 10 mg/ml in DMSO. Control solutions of DMSO only were also prepared. Synchronous aged adult populations of C.elegans strain CB5586 worms were prepared. The CB5586 strain comprises a pharyngeal GFP (green fluorescent protein) tag and a mutation in the bus-5 gene. The pharyngeal GFP tag allows for fluorescent images of the worm populations to be taken. The mutation in the bus-5 gene causes the loss of normal cuticle antigens that permits the cuticle of the worms to become permeable to the test formulations and allow direct uptake of the test formulations to avoid interaction of the test formulations with protective mechanisms of the gut channel. Each serial dilution of each test formulation was added to a separate population of the prepared worms. The control solutions were also added to separate populations of the prepared worms. The populations of the prepared worms were then maintained on standard nematode growth media (NGM) agar plates at 20° C. with sufficient food (Escherichia coli strain OP-50).
Each worm population was then monitored by fluorescent imaging to determine the number of living and dead worms as a function of time. The fluorescent imaging was analyzed by software that recognized and counted worms based on their fluorescent intensity compared to background fluorescence. […] The ability to distinguish between living and dead worms allowed the number of living worms and cumulative number of dead worms to be monitored against time. Worm populations from a selection of fluorescent images were manually checked to verify that the software had accurately counted the number of living and dead worms.
The counts of the living and dead worms as a function of time were then analyzed for each of the worm populations and used to prepare Kaplan-Meier survival curves and associated statistics for each of the worm populations. […] The median lifespan is shown as the length of time after the last mitotic division that 50% of the test population remains viable when compared to the control population. The maximum lifespan extension is shown as the length of time after the last mitotic division that 5% of the test population remains viable when compared to the control population.
The counts of the living and dead worms as a function of time and the Kaplan-Meier survival curves and the associated statistics were then analyzed for each of the worm populations. The analysis included determining mean and median lifespan. The analysis included a non-parametric test, the Log-Rank test, that compares two survival functions for the overall lifespan assay and provides a reliable p-value summarizing the whole experiment. The analysis also included Fisher's Exact Test that calculated the significance of survival function comparisons at multiple specific time points throughout the experiment, rather than for the overall lifespan. The results of the analysis are shown below in Tables 10-17.
Phenotypic screening was carried out as described in EXAMPLE 2 for various individual compounds of the N357 formulation. […] Alpha lipoic acid was sourced from PureBulk USA as a racemic mix of R and S stereoisomers and was assigned a sample number of N198. Hesperidin was sourced from Sigma Aldrich at ≧80% purity and was assigned a sample number of N347. […]

For `O=C(O)CCCCC1CCSS1` (racemic) [Alpha lipoic acid, alpha lipoic acid], which “NF-κB % Inhibition” value (human NF-κB; 1.42 μg/ml active ingredient) is on record?
The value was 3.1%.

And the “NF-κB % Inhibition” value (human NF-κB; 4.25 μg/ml active ingredient)?
The value was −0.70%.

And the “NF-κB % Inhibition” value (human NF-κB; 12.7 μg/ml active ingredient)?
Its value is −6.1%.

And the “NF-κB % Inhibition” value (human NF-κB; 38.23 μg/ml active ingredient)?
Its value is 5.9%.

What about the “NF-κB % Inhibition” value (human NF-κB; 114.70 μg/ml active ingredient) of the same compound?
Its value is −14%.

And the “PPARδ Fold-Activation” value (human PPARδ; 1.42 μg/ml active ingredient)?
Its value is 1.5 fold.

And the “PPARδ Fold-Activation” value (human PPARδ; 4.25 μg/ml active ingredient)?
The value was 1.1 fold.

What about the “PPARδ Fold-Activation” value (human PPARδ; 12.7 μg/ml active ingredient) of the same compound?
Its value is 0.80 fold.

What about the “PPARδ Fold-Activation” value (human PPARδ; 38.23 μg/ml active ingredient) of the same compound?
Its value is 0.52 fold.

And the “PPARδ Fold-Activation” value (human PPARδ; 114.70 μg/ml active ingredient)?
Its value is 0.29 fold.

What about the “NF-κB % Live Cell” value (NF-κB reporter cells; 1.42 μg/ml active ingredient) of the same compound?
The value was 100%.

What about the “NF-κB % Live Cell” value (NF-κB reporter cells; 4.25 μg/ml active ingredient) of the same compound?
Its value is 104%.

And the “NF-κB % Live Cell” value (NF-κB reporter cells; 12.7 μg/ml active ingredient)?
The value was 102%.

What about the “NF-κB % Live Cell” value (NF-κB reporter cells; 38.23 μg/ml active ingredient) of the same compound?
The value was 104%.

What about the “NF-κB % Live Cell” value (NF-κB reporter cells; 114.70 μg/ml active ingredient) of the same compound?
Its value is 105%.

And the “activation of Nrf2” value (Nrf2; 100 μM and 30 μM against a control)?
The value was “demonstrated activation of Nrf2 at both 100 μM and 30 μM”.

And the “minimum inducing concentration (Nrf2)” value (Nrf2; human retinal epithelial cell line)?
Its value is 1.75 µM.

And the “Statistically Significant Result (lifespan vs. DMSO control)” value (C. elegans strain CB5586; 0.1 mg/ml)?
Its value is “Statistically significant increase”.

And the extension of lifespan (C. elegans strain CB5586; 0.1 mg/ml)?
The extension of lifespan was “about 12.5%”.

What about the “population age in days at 25% mortality” value (C. elegans strain CB5586; 0.1 mg/ml) of the same compound?
Its value is 14 days.

What about the “population age in days at 50% mortality” value (C. elegans strain CB5586; 0.1 mg/ml) of the same compound?
Its value is 16 days.

What about the “population age in days at 75% mortality” value (C. elegans strain CB5586; 0.1 mg/ml) of the same compound?
The value was 18 days.

What about the “effect on chronological lifespan” value (C. elegans strain CB5586; 0.1 mg/ml and 10 mg/ml tested) of the same compound?
Its value is “significant positive and dose dependent increase of chronological lifespan”.

What about the “% Change in Mean Lifespan” value (C. elegans strain CB5586; 0.1 mg/ml vs. DMSO control) of the same compound?
The value was “+12.5%”.

What about the “restricted mean lifespan, # of Days” value (C. elegans strain CB5586; 0.1 mg/ml) of the same compound?
The value was 14.89 days.

What about the “Statistically Significant Result (lifespan vs. DMSO control)” value (C. elegans strain CB5586; 10 mg/ml) of the same compound?
The value was “Statistically significant increase”.

What about the extension of lifespan (C. elegans strain CB5586; 10 mg/ml) of the same compound?
The extension of lifespan was “about 12.5%”.

And the “population age in days at 25% mortality” value (C. elegans strain CB5586; 10 mg/ml)?
Its value is 14 days.

What about the “population age in days at 50% mortality” value (C. elegans strain CB5586; 10 mg/ml) of the same compound?
The value was 16 days.

What about the “population age in days at 75% mortality” value (C. elegans strain CB5586; 10 mg/ml) of the same compound?
The value was 18 days.

What about the “% Change in Mean Lifespan” value (C. elegans strain CB5586; 10 mg/ml vs. DMSO control) of the same compound?
Its value is “+12.5%”.

What about the “restricted mean lifespan, # of Days” value (C. elegans strain CB5586; 10 mg/ml) of the same compound?
The value was 14.85 days.

Reference: US20180008573A1, “METHODS AND COMPOSITIONS FOR REDUCING DAMAGE ASSOCIATED WITH OXIDATIVE PHOSPHORYLATION” (USANA Health Sciences, Inc., priority 2016, published 2018)
